The assay addresses T1, Nav1.7 (or SCN9A) channel; HEK cells stably transfected with hSCN9A (Homo sapiens, UniProt Q15858).
T1 construct: expressed in transfected cells
In words: Nav1.7 block, PatchXpress 7000 automated whole-cell voltage clamp, estimated IC50 (EIC50). The following applies: estimated IC50; hSCN9A HEK cells, PatchXpress platform; Examples 283-814. Type of assay: cell-based.

The values that follow come from US8541588B2, “Sulfonamide derivatives” (Pfizer Limited, priority 2009, dated 2013).

Structures are written as SMILES.

T1 sequence (Q15858 whole entry): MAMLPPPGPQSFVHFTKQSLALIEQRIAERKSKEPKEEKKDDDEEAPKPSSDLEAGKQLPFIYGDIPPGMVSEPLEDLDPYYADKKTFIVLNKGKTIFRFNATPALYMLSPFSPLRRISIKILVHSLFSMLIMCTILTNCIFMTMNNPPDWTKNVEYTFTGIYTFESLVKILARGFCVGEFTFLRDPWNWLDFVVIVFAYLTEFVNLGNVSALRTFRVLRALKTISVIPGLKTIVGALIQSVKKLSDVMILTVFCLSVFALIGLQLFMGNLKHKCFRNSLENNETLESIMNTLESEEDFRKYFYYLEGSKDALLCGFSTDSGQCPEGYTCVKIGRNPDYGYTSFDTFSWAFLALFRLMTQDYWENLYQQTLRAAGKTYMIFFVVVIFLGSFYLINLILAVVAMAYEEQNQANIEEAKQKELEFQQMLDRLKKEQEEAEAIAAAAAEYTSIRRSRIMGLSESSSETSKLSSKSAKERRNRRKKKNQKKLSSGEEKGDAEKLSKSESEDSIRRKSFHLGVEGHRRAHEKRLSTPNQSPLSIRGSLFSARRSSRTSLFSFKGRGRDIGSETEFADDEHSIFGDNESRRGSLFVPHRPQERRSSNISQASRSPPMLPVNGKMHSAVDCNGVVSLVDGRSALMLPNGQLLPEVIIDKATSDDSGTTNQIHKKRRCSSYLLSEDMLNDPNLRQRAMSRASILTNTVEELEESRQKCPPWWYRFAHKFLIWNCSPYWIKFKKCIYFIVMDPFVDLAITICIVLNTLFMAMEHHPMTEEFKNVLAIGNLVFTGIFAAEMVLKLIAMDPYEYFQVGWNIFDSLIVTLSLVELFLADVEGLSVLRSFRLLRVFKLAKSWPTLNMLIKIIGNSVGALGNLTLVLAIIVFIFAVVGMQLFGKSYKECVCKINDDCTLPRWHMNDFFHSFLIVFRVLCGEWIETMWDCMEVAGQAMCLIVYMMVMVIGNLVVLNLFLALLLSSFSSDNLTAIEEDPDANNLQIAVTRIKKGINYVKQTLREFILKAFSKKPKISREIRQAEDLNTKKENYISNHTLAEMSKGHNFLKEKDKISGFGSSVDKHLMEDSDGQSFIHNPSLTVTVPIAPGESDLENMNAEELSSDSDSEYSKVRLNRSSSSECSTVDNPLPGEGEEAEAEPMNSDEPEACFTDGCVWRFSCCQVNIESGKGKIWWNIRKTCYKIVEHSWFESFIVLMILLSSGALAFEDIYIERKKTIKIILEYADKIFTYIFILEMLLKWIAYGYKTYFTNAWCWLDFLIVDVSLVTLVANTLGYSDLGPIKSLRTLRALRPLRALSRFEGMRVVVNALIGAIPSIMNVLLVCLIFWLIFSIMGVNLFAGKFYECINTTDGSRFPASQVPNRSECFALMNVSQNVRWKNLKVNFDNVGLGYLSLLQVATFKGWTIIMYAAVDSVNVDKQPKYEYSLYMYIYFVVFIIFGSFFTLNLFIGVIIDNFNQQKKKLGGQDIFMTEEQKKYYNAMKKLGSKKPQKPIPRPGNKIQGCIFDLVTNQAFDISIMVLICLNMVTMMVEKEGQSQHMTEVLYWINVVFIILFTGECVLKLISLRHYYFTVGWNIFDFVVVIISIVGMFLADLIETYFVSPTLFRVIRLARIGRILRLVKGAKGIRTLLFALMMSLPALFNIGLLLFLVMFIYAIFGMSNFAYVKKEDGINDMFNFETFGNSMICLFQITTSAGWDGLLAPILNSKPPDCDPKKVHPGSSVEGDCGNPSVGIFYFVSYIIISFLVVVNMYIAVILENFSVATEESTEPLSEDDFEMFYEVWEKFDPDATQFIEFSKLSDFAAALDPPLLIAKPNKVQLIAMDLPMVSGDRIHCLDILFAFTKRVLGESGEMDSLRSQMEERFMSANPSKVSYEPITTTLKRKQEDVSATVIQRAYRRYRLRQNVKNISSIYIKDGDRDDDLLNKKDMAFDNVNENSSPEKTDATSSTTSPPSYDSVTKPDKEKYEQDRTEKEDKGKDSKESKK

Take `N#Cc1cc(S(=O)(=O)Nc2ncc(F)s2)ccc1Oc1ccc(Cl)c(Cn2ccnc2)c1` [Example 530, 4-[4-chloro-3-(1H-imidazol-1-ylmethyl)phenoxy]-3-cyano-N-(5-fluoro-1,3-thiazol-2-yl)benzenesulfonamide]: the concentration for half-maximal inhibition (IC50) was 230 nM. For the compound `COc1cccc(-c2cc(Oc3ccc(S(=O)(=O)Nc4ncc(F)s4)cc3C#N)ccc2Cl)c1` [Example 531, 4-[(6-chloro-3′-methoxybiphenyl-3-yl)oxy]-3-cyano-N-(5-fluoro-1,3-thiazol-2-yl)benzenesulfonamide], the IC50 is 1100 nM. As to `COCc1cccc(-c2cc(Oc3ccc(S(=O)(=O)Nc4ncc(F)s4)cc3C#N)ccc2Cl)c1` [Example 532, 4-{[6-chloro-3′-(methoxymethyl)biphenyl-3-yl]oxy}-3-cyano-N-(5-fluoro-1,3-thiazol-2-yl)benzenesulfonamide], the 50% inhibitory concentration (IC50) was 2900 nM. On to `N#Cc1cc(S(=O)(=O)Nc2ncc(F)s2)ccc1Oc1ccc(Cl)c(Cn2ccnn2)c1` [Example 533, 4-[4-chloro-3-(1H-1,2,3-triazol-1-ylmethyl)phenoxy]-3-cyano-N-(5-fluoro-1,3-thiazol-2-yl)benzenesulfonamide], for which the IC50 is 780 nM. For `N#Cc1cc(S(=O)(=O)Nc2ncc(F)s2)ccc1Oc1ccc(Cl)c(Cn2cccn2)c1` [Example 534, 4-[4-chloro-3-(1H-pyrazol-1-ylmethyl)phenoxy]-3-cyano-N-(5-fluoro-1,3-thiazol-2-yl)benzenesulfonamide] the value was 500 nM. `Cn1nc(C(F)(F)F)cc1-c1ccc(Oc2ccc(S(=O)(=O)Nc3ncc(F)s3)cc2C#N)c(F)c1` [Example 535, 3-cyano-4-{2-fluoro-4-[1-methyl-3-(trifluoromethyl)-1H-pyrazol-5-yl]phenoxy}-N-(5-fluoro-1,3-thiazol-2-yl)benzenesulfonamide]: the half-inhibitory concentration (IC50) is 170 nM.

On to `CCn1nc(C(F)(F)F)cc1-c1ccc(Oc2ccc(S(=O)(=O)Nc3ncc(F)s3)cc2C#N)cc1F` [Example 536, 3-cyano-4-{4-[1-ethyl-3-(trifluoromethyl)-1H-pyrazol-5-yl]-3-fluorophenoxy}-N-(5-fluoro-1,3-thiazol-2-yl)benzenesulfonamide], for which the concentration for half-maximal inhibition (IC50) was 220 nM. On to `CCn1nc(C(F)(F)F)cc1-c1ccc(Oc2ccc(S(=O)(=O)Nc3ncc(F)s3)cc2C#N)c(F)c1` [Example 537, 3-cyano-4-{4-[1-ethyl-3-(trifluoromethyl)-1H-pyrazol-5-yl]-2-fluorophenoxy}-N-(5-fluoro-1,3-thiazol-2-yl)benzenesulfonamide], for which the 50% inhibitory concentration (IC50) is 25 nM. With `Cn1nccc1-c1ccc(Oc2ccc(S(=O)(=O)Nc3ncc(F)s3)cc2C#N)c(C#N)c1` [Example 538, 3-cyano-4-[2-cyano-4-(1-methyl-1H-pyrazol-5-yl)phenoxy]-N-(5-fluoro-1,3-thiazol-2-yl)benzenesulfonamide], the IC50 was 3400 nM. For the compound `CCn1nc(-c2ccc(Oc3ccc(S(=O)(=O)Nc4ncc(F)s4)cc3C#N)c(F)c2)cc1C(F)(F)F` [Example 540, 3-cyano-4-{4-[1-ethyl-5-(trifluoromethyl)-1H-pyrazol-3-yl]-2-fluorophenoxy}-N-(5-fluoro-1,3-thiazol-2-yl)benzenesulfonamide], the IC50 was 4000 nM. As to `COc1ccc(-c2ccnn2C)c(Oc2ccc(S(=O)(=O)Nc3nccs3)cc2C#N)c1` [Example 541, 3-cyano-4-[5-methoxy-2-(1-methyl-1H-pyrazol-5-yl)phenoxy]-N-1,3-thiazol-2-ylbenzenesulfonamide], the IC50 was 140 nM. Consider `Cn1nccc1-c1ccc(F)cc1Oc1ccc(S(=O)(=O)Nc2nccs2)cc1C#N` [Example 542, 3-cyano-4-[5-fluoro-2-(1-methyl-1H-pyrazol-5-yl)phenoxy]-N-1,3-thiazol-2-ylbenzenesulfonamide], for which the half-maximal inhibitory concentration (IC50) was 66 nM. For `Cc1ccc(-c2ccnn2C)c(Oc2ccc(S(=O)(=O)Nc3nccs3)cc2C#N)c1` [Example 543, 3-cyano-4-[5-methyl-2-(1-methyl-1H-pyrazol-5-yl)phenoxy]-N-1,3-thiazol-2-ylbenzenesulfonamide] the value was 66 nM; for `Cn1nccc1-c1ccc(Cl)cc1Oc1ccc(S(=O)(=O)Nc2nccs2)cc1C#N` [Example 544, 4-[5-chloro-2-(1-methyl-1H-pyrazol-5-yl)phenoxy]-3-cyano-N-1,3-thiazol-2-ylbenzenesulfonamide], 22 nM; for `Cn1nccc1-c1cc(C2CC2)ccc1Oc1ccc(S(=O)(=O)Nc2nccs2)cc1C#N` [Example 545, 3-cyano-4-[4-cyclopropyl-2-(1-methyl-1H-pyrazol-5-yl)phenoxy]-N-1,3-thiazol-2-ylbenzenesulfonamide], 23 nM. For `Cc1[nH]ncc1-c1cc(Cl)ccc1Oc1ccc(S(=O)(=O)Nc2nccs2)cc1C#N` [Example 546, 4-[4-chloro-2-(5-methyl-1H-pyrazol-4-yl)phenoxy]-3-cyano-N-1,3-thiazol-2-ylbenzenesulfonamide] the value was 20 nM; for `CCn1nc(C(F)(F)F)cc1-c1cccc(Oc2ccc(S(=O)(=O)Nc3nccs3)cc2C#N)c1` [Example 547, 3-cyano-4-{3-[1-ethyl-3-(trifluoromethyl)-1H-pyrazol-5-yl]phenoxy}-N-1,3-thiazol-2-ylbenzenesulfonamide], 120 nM. `CCn1nc(C(C)(C)C#N)cc1-c1ccc(Oc2ccc(S(=O)(=O)Nc3nccs3)cc2C#N)cc1` [Example 548, 3-cyano-4-{4-[3-(1-cyano-1-methylethyl)-1-ethyl-1H-pyrazol-5-yl]phenoxy}-N-1,3-thiazol-2-ylbenzenesulfonamide]: the IC50 is 410 nM. `N#Cc1cc(S(=O)(=O)Nc2nccs2)ccc1Oc1cccc(-c2cc(C(F)(F)F)nn2CCO)c1` [Example 549, 3-cyano-4-{3-[1-(2-hydroxyethyl)-3-(trifluoromethyl)-1H-pyrazol-5-yl]phenoxy}-N-1,3-thiazol-2-ylbenzenesulfonamide]: the IC50 is 160 nM. With `CN(C)CCn1nc(C(F)(F)F)cc1-c1cccc(Oc2ccc(S(=O)(=O)Nc3nccs3)cc2C#N)c1` [Example 550, 3-cyano-4-(3-{1-[2-(dimethylamino)ethyl]-3-(trifluoromethyl)-1H-pyrazol-5-yl}phenoxy)-N-1,3-thiazol-2-ylbenzenesulfonamide] the figure was 200 nM; with `N#Cc1cc(S(=O)(=O)Nc2nccs2)ccc1Oc1ccc(-c2cc(C(F)(F)F)nn2CCCF)cc1F` [Example 551, 3-cyano-4-{2-fluoro-4-[1-(3-fluoropropyl)-3-(trifluoromethyl)-1H-pyrazol-5-yl]phenoxy}-N-1,3-thiazol-2-ylbenzenesulfonamide], 71 nM; with `Nc1cc(-c2cc(OC(F)(F)F)ccc2Oc2cc(F)c(S(=O)(=O)Nc3ncns3)cc2Cl)ccn1` [Example 553, 4-[2-(2-aminopyridin-4-yl)-4-(trifluoromethoxy)phenoxy]-5-chloro-2-fluoro-N-1,2,4-thiadiazol-5-ylbenzenesulfonamide], 1.7 nM. `Nc1ccnc(-c2cc(Cl)ccc2Oc2cc(F)c(S(=O)(=O)Nc3ncns3)cc2Cl)c1` [Example 554, 4-[2-(4-aminopyridin-2-yl)-4-chlorophenoxy]-5-chloro-2-fluoro-N-1,2,4-thiadiazol-5-ylbenzenesulfonamide]: the half-maximal inhibitory concentration (IC50) is 120 nM. On to `Nc1cccc(-c2cc(C(F)(F)F)ccc2Oc2cc(F)c(S(=O)(=O)Nc3ncns3)cc2F)n1` [Example 555, 4-[2-(6-aminopyridin-2-yl)-4-(trifluoromethyl)phenoxy]-2,5-difluoro-N-1,2,4-thiadiazol-5-ylbenzenesulfonamide], for which the 50% inhibitory concentration (IC50) is 14 nM. With `Nc1cc(-c2cc(C(F)(F)F)ccc2Oc2cc(F)c(S(=O)(=O)Nc3ncns3)cc2F)ccn1` [Example 556, 4-[2-(2-aminopyridin-4-yl)-4-(trifluoromethyl)phenoxy]-2,5-difluoro-N-1,2,4-thiadiazol-5-ylbenzenesulfonamide] the figure was 2.3 nM. Turning to `Nc1cc(-c2cc(C(F)(F)F)ccc2Oc2cc(F)c(S(=O)(=O)Nc3ncns3)cc2Cl)ccn1` [Example 557, 4-[2-(2-aminopyridin-4-yl)-4-(trifluoromethyl)phenoxy]-5-chloro-2-fluoro-N-1,2,4-thiadiazol-5-ylbenzenesulfonamide], the IC50 is 0.8 nM. `N#Cc1cc(S(=O)(=O)Nc2nccs2)ccc1Oc1ccc(-c2cc(C(F)(F)F)nn2C2CNC2)cc1` [Example 558, 4-{4-[1-azetidin-3-yl-3-(trifluoromethyl)-1H-pyrazol-5-yl]phenoxy}-3-cyano-N-1,3-thiazol-2-ylbenzenesulfonamide]: the IC50 was 39 nM. For the compound `N#Cc1cc(S(=O)(=O)Nc2ncc(Cl)s2)ccc1Oc1ccc(Cl)cc1-c1ccnn1C1CNC1` [Example 559, 4-[2-(1-azetidin-3-yl-1H-pyrazol-5-yl)-4-chlorophenoxy]-N-(5-chloro-1,3-thiazol-2-yl)-3-cyanobenzenesulfonamide], the half-inhibitory concentration (IC50) was 0.7 nM. Turning to `O=S(=O)(Nc1ccncn1)c1cc(Cl)c(Oc2ccc(Cl)cc2C2CCNCC2)cc1F` [Example 560, 5-chloro-4-(4-chloro-2-piperidin-4-ylphenoxy)-2-fluoro-N-pyrimidin-4-ylbenzenesulfonamide], the IC50 was 78 nM. Regarding `O=S(=O)(Nc1ccc(F)cn1)c1cc(F)c(Oc2ccc(Cl)cc2C2CCNCC2)cc1F` [Example 561, 4-(4-chloro-2-piperidin-4-ylphenoxy)-2,5-difluoro-N-(5-fluoropyridin-2-yl)benzenesulfonamide], the IC50 was 380 nM. With `COCCn1nccc1-c1cc(Cl)ccc1Oc1ccc(S(=O)(=O)Nc2ncns2)cc1C#N` [Example 562, 4-{4-chloro-2-[1-(2-methoxyethyl)-1H-pyrazol-5-yl]phenoxy}-3-cyano-N-1,2,4-thiadiazol-5-ylbenzenesulfonamide] the figure was 17 nM; with `COCCn1nccc1-c1cc(Cl)ccc1Oc1cc(F)c(S(=O)(=O)Nc2nncs2)cc1Cl` [Example 563, 5-chloro-4-{4-chloro-2-[1-(2-methoxyethyl)-1H-pyrazol-5-yl]phenoxy}-2-fluoro-N-1,3,4-thiadiazol-2-ylbenzenesulfonamide], 130 nM.
